Measured values as given in PMC6421079 (European neuropsychopharmacology : the journal of the …, 2018).
pEC50, pKi: −log10 of the molar value. Where two headings read alike, the source gives them in different places. Where no end group is shown, it is not given here.

Columns and labels:
[1] = cited from earlier work
[2] = ref Groer et al., 2007; cited from earlier work
δ-ORs = conditions: ref Chiang et al., 2016; Molinari et al., 2010; cited from earlier work
δ-OR = δ-OR (Homo sapiens, UniProt P41143); assay: Radioligand binding assay: displacement of [^3H]DPDPE
humanδ-OR / β-arrestin 2 = humanδ-OR / β-arrestin 2 (Homo sapiens, UniProt P41143); assay: β-arrestin 2 recruitment, CHO-humanδ-OR PathHunter cells; type: cell-based; conditions: for efficacy α β-arrestin2: normalized to leu-enkephalin, mean ± SEM
[3] = tested on: δ opioid receptors (δ-ORs); conditions: synthetic analog of rubiscolin-6; ref Yang et al., 2003b; cited from earlier work

Chain of humanδ-OR / β-arrestin 2 (P41143 whole entry): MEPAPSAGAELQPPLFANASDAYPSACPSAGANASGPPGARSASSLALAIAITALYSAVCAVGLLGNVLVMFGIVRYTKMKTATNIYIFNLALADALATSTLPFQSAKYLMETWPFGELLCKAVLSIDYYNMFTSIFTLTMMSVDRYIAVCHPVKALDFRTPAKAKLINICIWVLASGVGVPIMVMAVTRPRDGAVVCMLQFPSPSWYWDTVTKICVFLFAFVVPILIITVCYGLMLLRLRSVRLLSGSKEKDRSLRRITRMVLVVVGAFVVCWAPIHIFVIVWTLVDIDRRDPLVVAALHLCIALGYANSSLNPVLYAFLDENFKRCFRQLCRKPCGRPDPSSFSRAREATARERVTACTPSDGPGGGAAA
Chain of δ-OR (P41143 whole entry): as above

C[C@@H](Cc1ccsc1)NC(=O)NC[C@H](Cc1ccc(O)cc1)N(C)C [PZM21]
side effect profile ([1]; ref Manglik et al., 2016): appear to possess a reduced side effect profile

COc1ccsc1CNCC[C@@]1(c2ccccn2)CCOC2(CCCC2)C1 [TRV130]
side effect profile ([1]; ref DeWire et al., 2013): appear to possess a reduced side effect profile

COC(=O)[C@@H]1C[C@H](OC(=O)c2ccccc2)C(=O)[C@H]2[C@@]1(C)CC[C@H]1C(=O)O[C@H](c3ccoc3)C[C@]21C [herkinorin]
G protein bias, in words [2]: G protein-biased

DADLE
β-arrestin recruitment, in words (δ-ORs): strongly recruit β-arrestin

DPDPE
β-arrestin recruitment, in words (δ-ORs): strongly recruit β-arrestin

YPLDL [Rubiscolin-5]
pKi (δ-OR): 5.50
pEC50 (humanδ-OR / β-arrestin 2): 4.10
efficacy α β-arrestin2 (humanδ-OR / β-arrestin 2): 15±4

YPLDLF [Rubiscolin-6]
pKi (δ-OR): 6.00
pEC50 (humanδ-OR / β-arrestin 2): 5.10
efficacy α β-arrestin2 (humanδ-OR / β-arrestin 2): 20±3

YPLDLV
potency and δ-OR selectivity, in words [3]: more potent and δ-OR-selective
